Measurements taken from patent publication US8877206B2, “Stimulation of an immune response by cationic lipids” (PDS Biotechnology Corporation, priority 2007, dated 2014).
Like-named read-outs stand apart in the source and are kept apart here.

Tests used:
[1] = test system: BMDC; experiment: CCL2 release from BMDC (ELISA); format: cell-based, C57BL/6 mice
[2] = test system: DC2.4 dendritic cells; settings: cited from earlier work; for Expression of CD80/CD86: FIG. 14A, disclosed in U.S. Pat. No. 7,303,881; for Potency to stimulate expression of CD 80 vs lipids with longer or saturated acyl chains: ethyl phosphocholine head group lipids, FIG. 14B
[3] = test system: ERK; experiment: Western blot of ERK and p38 activation in BMDC; format: cell-based, mouse; settings: for Effect on DOTAP-induced ERK phosphorylation: FIG. 19C
Method: (§1) BMDC cell lysate was collected after different treatments and total cellular protein was resolved on polyacrylamide/SDS gels and then transferred to polyvinylidene difluoride membranes. The membranes were blocked with 5% nonfat milk in Tris-buffered saline for 1 h and then incubated from 1 h to overnight with primary antibody. After washing the membranes with Tris-buffered saline three times, the membranes were incubated horseradish peroxidase conjugated secondary antibody for 1 h. The peroxidase activity associated with the protein bands was detected by enhanced chemiluminescence using ECL plus (Amershan International) followed by autoradiography.

[4] = test system: draining lymph node cells; experiment: Uptake of NBD-DOTAP and dendritic cell activation/migration to the draining lymph node; format: in vivo, mice
Method: Naïve mice (n=4-6) were injected with PBS control (FIGS. 7 A, C and E) or DOTAP/E7 containing 100 nmols total lipid with 0.5% 1-Oleoyl-2-[6-[(7-nitro-2-1,3-benzoxadiazol-4-yl)amino]hexanoyl]-3-trimethylammonium propane] (“NBD-DOTAP”) (FIGS. 7 B, D, and F). At 4 h after the injection, draining lymph node cells were prepared and stained with appropriate antibodies to surface markers. The co-expression of NBD and CD11c (FIGS. 7 A and B) or CD86 (FIGS. 7 C and D) were analyzed within total lymph node cells whereas the co-expression of NBD and CD8 (FIGS. 7 E and F) were gated and analyzed within CD3^+ population. The numbers represented the percentages of cells in the quadrants. Draining lymph node cells were harvested and analyzed by flow cytometry at different time points post injection. The numbers of CD11c^+ cells among total lymph node cells increased by more than 2.5-fold compared to untreated mice 4 h after NBD-DOTAP/E7 injection (FIGS. 7 A and B). […] NBD uptake by other cell types such as T lymphocytes was also investigated by costaining with anti-CD3, CD4 and CD8 antibodies.

[5] = test system: murine bone marrow derived dendritic cells (BMDC); settings: Vangesseri et al 2006; cited from earlier work
[6] = test system: BMDC; experiment: RT-PCR of chemokine mRNA in BMDC; format: cell-based, mouse; settings: 50 μM liposomes for 16 h; FIG. 15B
Method: Total RNA was isolated from BMDC by Rneasy Mini Kit from Qiagen according to the manufacturer's instruction. Following digestion with Dnase for 30 min at 37° C., the total RNA concentration was determined by spectrophotometry. Primer pairs for mouse CCL2, CCL3, CCL4 and β-actin (forward primer 5′-[…]-3′ [SEQ. ID. NO. 3] and reverse primer 5′-[…]-3′ [SEQ. ID. NO. 4] for CCL2; forward primer 5′-[…]-3′ [SEQ. ID. NO. 5] and reverse primer 5′-[…]-3′ [SEQ. ID. NO. 6] for CCL3; forward primer 5′-[…]-3′ [SEQ. ID. NO. 7] and reverse primer 5′-[…]-3′ [SEQ. ID. NO. 8] and reverse primer 5′-[…]-3′ [SEQ. ID. NO. 9] for β-actin [Wang H., et al., Potential involvement of monocyte chemoattractant protein (MCP)-1/CCL2 in IL-4-mediated tumor immunity through inducing dendritic cell migration into the draining lymph nodes, Int Immunopharmacol 3:627-42, (2003)] were synthesized by IDT technology. RT-PCR was performed using the one-step RT-PCR kit (commercially available from Invitrogen of Carlsbad, Calif.) where reverse transcription and DNA amplification occur in the same reaction. Briefly, 1 μg of total RNA was used as a template in a reaction that included the appropriate primers in the presence of both reverse transcriptase and Taq polymerase. The mixture was incubated at 45° C. for 30 min and cycled 25 times at 94° C. for 30 s, 55° C. for 30 s, and 72° C. for 2 min. […]

[7] = test system: bone marrow derived dendritic cells (BMDC); format: cell-based, mouse
[8] = test system: DC2.4 cells; experiment: Affymetrix microarray of DC2.4 cells treated with DOTAP liposomes; format: cell-based, mouse
[9] = test system: TC-1 tumor; experiment: TC-1 HPV-positive tumor growth in treated mice; format: in vivo, C57BL/6 mice; settings: 100 nmole dose, without E7 peptide
[10] = Western blot of ERK and p38 activation in BMDC; format: cell-based, mouse
Method: as §1

[11] = BMDC stimulated 20 h at 37° C., supernatant ELISA, FIG. 1

With `CCCCCCCC/C=C\CCCCCCCC(=O)OCC(CN(C)C)OC(=O)CCCCCCC/C=C\CCCCCCCC` (stereo not drawn) [DODAP, dioleoyl dimethylaminopropane] the “MCP-1/CCL2 release from BMDC by liposomes” value (“MCP-1/CCL2 release from BMDC” below) [1] was “did not induce the activity”.

For `CCCCCCCC/C=C\CCCCCCCC(=O)OC[C@H](COP(=O)(O)OC[C@H](N)C(=O)O)OC(=O)CCCCCCC/C=C\CCCCCCCC` [DOPS], the “MCP-1/CCL2 release from BMDC” value [1] was “did not”.

In the case of `CCCCCCCCCCCCCCOC(=O)CC[C@H](NC(=O)[C@@H](N)CCCCN)C(=O)OCCCCCCCCCCCCCC` [DMKD, O,O′-dimyristyl-N-lysyl-glutamate], the “Expression of CD80/CD86” value [2] is listed as “strongly stimulated”.

With GF109203X [reference compound] the “Effect on DOTAP-induced ERK phosphorylation” value [3] was “no effect”.

In the case of `CCCCCCCC/C=C\CCCCCCCC(=O)OCC(C[N+](C)(C)C)OC(=O)CCCCCNc1ccc([N+](=O)[O-])c2nonc12` (stereo not drawn) [NBD-DOTAP], the “NBD uptake by CD3+ cells” value ([4]; FIG. 7E, F) is reported as “no NBD uptake” and the “Share taken up by dendritic cells” value ([4]; soon after immunization) is reported as about 80%.

For `CCCCCCCC/C=C\CCCCCCCC(=O)OC[C@H](COP(=O)(O)OCC(O)CO)OC(=O)CCCCCCC/C=C\CCCCCCCC` (stereo partly drawn) [DOPG], the “MCP-1/CCL2 release from BMDC” value ([1]; FIG. 16) was “did not”.

In the case of `CCCCCCCCCCCCCCOC(=O)C[C@H](NC(=O)[C@@H](N)CCCCN)C(=O)OCCCCCCCCCCCCCC` [DMKE, O,O′-dimyristyl-N-lysyl aspartate], the “Expression of CD80/CD86” value [2] is listed as “strongly stimulated”.

With `CCCCCCCC/C=C\CCCCCCCC(=O)OC[C@H](CO)OC(=O)CCCCCCC/C=C\CCCCCCCC` [DOG] the “MCP-1/CCL2 release from BMDC” value ([1]; FIG. 16) was “did not”.

With pertussis toxin [reference compound] the “Effect on DOTAP-induced ERK phosphorylation” value [3] was “slight inhibitory effect”.

In the case of `CCCCCCCC/C=C\CCCCCCCC(=O)OC[C@H](COP(=O)([O-])OCC[N+](C)(C)C)OC(=O)CCCCCCC/C=C\CCCCCCCC` [DOPC, dioleoyl phosphatidylcholine], the “MCP-1/CCL2 release from BMDC” value [1] is reported as “did not”.

In the case of `CCCCCCCC/C=C\CCCCCCCC(=O)OC[C@@H](COP(=O)(OCC)OCC[N+](C)(C)C)OC(=O)CCCCCCC/C=C\CCCCCCCC` (stereo partly drawn) [DOEPC, 1,2-dioleoyl-sn-glycero-3-ethylphosphocholine], the “Potency to stimulate expression of CD 80 vs lipids with longer or saturated acyl chains” value [2] is listed as “more potent”, the “Expression of co-stimulatory molecules CD80 and CD86” value [5] is listed as “activated for the expression of the co-stimulatory molecules” and the “MCP-1/CCL2 release from BMDC” value [1] is listed as “induced the MCP-1/CCL2 release”. For the same molecule, the “CCL2 and CCL4 mRNA (RT-PCR)” value [6] was “upregulated”.

For `CCCCCCCC/C=C\CCCCCCCC(=O)OCC(C[N+](C)(C)C)OC(=O)CCCCCCC/C=C\CCCCCCCC` (stereo not drawn) [DOTAP, 1,2-dioleoyl-3-trimethylammonium propane], the IL-10 induction [7] was “no induction of IL-10”, the IL-12 production [7, 11] was “production increased in response to DOTAP concentration” and the TNF-α production [7, 11] was “did not induce significant levels”. For the same molecule, the “Expression of co-stimulatory molecules CD80 and CD86” value [5] was “activated for the expression of the co-stimulatory molecules”, the “CD11c mRNA” value ([8]; 50 μM DOTAP) was “induced” and the “IL-1 receptor antagonist (IL1RA) mRNA” value ([8]; 50 μM DOTAP treatment for 16 h) was “increased”. For the same molecule, the “IL-1 β mRNA” value ([8]; 50 μM DOTAP treatment for 16 h) was “decreased”, the “mRNA of chemokines CCL2, CCL3, CCL4” value ([8]; 50 μM DOTAP, FIG. 15A) was “induced overexpression of several chemokines” and the CCL2 release [1] was “induced significant amounts of CCL2”. The “Concentration at which maximum CCL2 induction was reached” value [1] was 45 to 75 µM, the “MCP-1/CCL2 release from BMDC” value [1] was “induced the MCP-1/CCL2 release” and the “CCL2 and CCL4 mRNA (RT-PCR)” value [6] was “upregulated”. The TC-1 tumor growth [9] was “did not show significant inhibition of tumor growth”, the “Phosphorylation of IκB and subsequent degradation” value [10] was “no phosphorylation of IκB” and the p38 activation [10] was “slightly activated”. For the same molecule, the “Time phospho-ERK stayed at a high level” value [3] was “at least 40 min” and the “Time to ERK phosphorylation” value [3] was at most 10 min.

In the case of `CCCCCCCCCCCCCC(=O)OCC(COP(=O)(OCC)OCC[N+](C)(C)C)OC(=O)CCCCCCCCCCCCC` (stereo not drawn) [DMEPC, 1,2-dimyristoyl-sn-glycero-3-ethylphosphocholine], the “Potency to stimulate expression of CD 80 vs lipids with longer or saturated acyl chains” value [2] is given as “more potent”.

In the case of `CC(C)(C)n1nc(-c2ccc(Cl)cc2)c2c(N)ncnc21` [PP2, reference compound], the “Effect on DOTAP-induced CCL2 production” value ([1]; pre-incubated 20 min, then 75 μM DOTAP 24 h, PD 20 μM, SB 10 μM, U 10 μM, PTx 200 ng/mL, PP2 10 μM, Wort 200 nM, GF 200 nM, FIG. 18) is reported as “no inhibitory effect” and the “Effect on DOTAP-induced ERK phosphorylation” value [3] is reported as “no effect”.

In the case of `CCCCCCCCCCCC(=O)OC[C@H](COP(=O)(OCC)OCC[N+](C)(C)C)OC(=O)CCCCCCCCCCC` (stereo partly drawn) [DLEPC, 1,2-dilauroyl-sn-glycero-3-ethylphosphocholine], the “Potency to stimulate expression of CD 80 vs lipids with longer or saturated acyl chains” value [2] is given as “more potent”.
